# Data taken from patent US12714736B2, “Methods for preventing an immunoglobulin e-related disease” (MY-OR DIAGNOSTICS LTD., priority 2019, dated 2026).
# Tested on: Staphylococcus epidermidis
# Assay: Anti/pro microbial study: Staphylococcus epidermidis cultured on a plate comprising acemannan
# Assay type: cell-based
# Details: culture plate, Acemannan 0.2% (w/w) vs control (double-distilled water), FIG. 1
# Procedure: FIG. 1 includes a micrograph of culture plate of Staphylococcus epidermidis. The bacteria were cultured on the plate in presence of either Acemannan (0.2% (w/w)) or control (double-distilled water).
# The inventors examined the activity of a composition comprising acemannan. The inventors performed an anti/pro microbial study, by culturing Staphylococcus epidermidis on a plate comprising acemannan. S. epidermidis is a skin resident who is known to play an important role in immune training and pathogen resistance. […] This supports the inventors' notion that the herein disclosed cream supports healthy colonization of the skin microbiome.
substance,measurement,setting,value
Acemannan,growth of S. epidermidis,,Comparable levels of bacterial growth
same,growth of S. epidermidis,listed as acemannan,did not affect the growth of S. epidermidis
